Measurements taken from patent US8414989B2, “Cyclodextrin compositions, articles, and methods” (Cellresin Technologies, LLC, priority 2011, dated 2013).

Columns and labels:
[1] = Example 6: 1-MCP headspace release from PSA labels; type: physicochemical; settings: 2.5 cm x 2.5 cm PSA label, 250 mL bottle; for Headspace concentration of 1-MCP, average: 50 μL water
Protocol: A 100 mL quartz beaker was charged with 54 g of 2-isooctyl acrylate, 6 g of acrylic acid, and 0.60 g of 1-hydroxycyclohexyl phenyl ketone (IRGACURE® 184, Ciba Specialty Chemicals Corp. of Tarrytown, N.Y.). The beaker was equipped with a mechanical stirrer, and the contents were mixed for about 5 minutes while sparging with dry helium. Then the beaker was irradiated with a medium pressure mercury arc lamp operating at 79 watts per cm situated about 15 cm from the side of the beaker. The light was turned off when the contents of the flask were of a honey-like consistency, about 1.5 minutes. The beaker was further charged with 3.23 g of 1-MCP/c/α-CD, 0.89 g of IRGACURE® 184, 5.8 g of isooctyl acrylate, and 0.72 g of acrylic acid. The beaker contents were mixed until uniformly dispersed, about 5 minutes.
About 4 mL of the mixture in the bottle was removed with a metered dropper and dispensed on 30.5 cm by 30.5 cm white paper labelstock, and drawn down using a metering rod (Meyer coating rod #30) having a delivered coating thickness of 25 microns. Then a 21.5 cm by 28 cm silicone coated polyester (PET) film sheet (120 μm thick (obtained from the 3M Company of St. Paul, Minn.) was placed over the coated labelstock, taking care not to entrain air bubbles. The coated and covered labelstock was cut into 10 cm by 20 cm rectangles using a paper cutter. The cut samples were passed by hand about 15 cm beneath a medium pressure mercury arc lamp operating at 79 watts per cm; multiple hand passes beneath the UV light or about 30 seconds under the lamp was used to cure the adhesive. The cured coated labelstock sheets were allowed to sit PET side up on a laboratory bench overnight.
A paper cutter was used to cut six replicate 2.5 cm by 2.5 cm squares from the sheets. Because the UV cured coating composition is a pressure sensitive adhesive, or PSA, the 2.5 cm by 2.5 cm squares are termed “PSA labels.” Each PSA label, with the silicone coated PET still in place, was placed in a 250 mL serum bottle. Each bottle was sealed with a TEFLON® faced silicone septum. The headspace concentration of 1-MCP was measured after 1 hour following introduction of the PSA label into a bottle, using the technique of Example 3 except that 250 μL of gas was removed from the sample bottle for the analysis. 1-MCP was below the quantification limit of 0.01 ppm.
Then 50 μL of deionized water was injected into each bottle. […] The sealed bottle headspace was analyzed at 10 minutes, 30 minutes, and 60 minutes, using the technique of Example 3. A final headspace sample was analyzed 16 hours after the injection of water. The data illustrate that 1-MCP was released from a PSA label into the headspace when exposed to water vapor (humidity) and that its concentration increases over time.

[2] = Example 10: 1-MCP headspace release from inkjet printed multilayer and monolayer films; type: physicochemical; settings: 250 mL bottle, 100 μL water
Description: The ink containing 4 wt-% 1-MCP/c/α-CD from Example 9 was loaded back into the previously emptied cartridge. After refilling the cartridge, it was installed into a HP Inkjet 1600C printer (obtained from the Hewlett-Packard Company of Palo Alto, Calif.) and the calibration or head cleaning function was run. A medium density, black cross-hatch pattern obtained from Microsoft EXCEL software program 2003 (obtained from the Microsoft Corporation of Redman, Wash.) was used to format the entire printable page. The EXCEL pattern image was printed onto 3M, CG3460 Transparency Film (polyester film 120 microns thick for HP inkjet printers; obtained from the 3M Company of St. Paul, Minn.) using the dried, milled ink containing 4 wt-% 1-MCP/c/α-CD of Example 9. Immediately after printing, the printed side of the transparency film was overlaid with a 25 μm polyethylene film and then passed by hand about 10 cm beneath a medium pressure mercury arc lamp operating at 79 watts per cm for 3 seconds exposure to the lamp, with the polyethylene side facing the lamp. The methodology simulates a multilayer flexible-package where the inner surface of an outer, transparent, layer of the multilayer flexible material was printed (referred to as reverse printing). The printed surface was then laminated to other layers. The outside layer itself serves to protect the ink from abuse.
The following technique was designed to measure the permeability of 1-MCP, which was released from the reverse inkjet printed 3M Transparency Film, through PE film as the “inner layer” of a multilayer produce package. In a multilayer produce package, as the humidity rises inside the package by respiration of fresh agricultural products, the water vapor reaches a concentration that allows it to diffuse to the outside of the package. In this example, water also diffuses through the ink layer containing 1-MCP/c/α-CD. The reverse printed ink on the PET film releases 1-MCP which diffuses through the PE film into the interior of package (headspace) under a gradient of low 1-MCP concentration inside the bottle headspace and high 1-MCP concentration within the multilayer structure.
Using a paper cutter, a 5.5 cm by 16 cm rectangle (88 cm^2) was cut from the multilayer structure of the printed, cured ink on the PET sheet overlaid with PE. The rectangle was placed in a 250 mL serum bottle. The bottle was then sealed with a TEFLON® faced silicone septa. Then 100 μL of deionized water was injected into the bottle. […] Bottle headspace was analyzed at 0.17, 0.5, 1, 2, 4, and 24 hours after the injection of water using the technique employed in Example 3. The results in Table 8 illustrate 1-MCP headspace concentration as a function of time for the “multilayer” film.
A second piece of PET transparency film was printed as in Example 9 except that the transparency film was not covered with PE film; the printed ImTech UVBLK Series 912 ink was cured on the PET film surface using a medium pressure mercury arc lamp operating at 79 watts per cm in the same manner as for Example 9. Then, using a paper cutter, a 1.2 cm by 16 cm rectangle (19 cm^2) was cut from the sheet. The rectangle was placed in 250 mL serum bottle. The bottle was then sealed with a TEFLON® faced silicone septa. Then 100 μL of deionized water was injected into the bottle. […] Bottle headspace was analyzed at 0.17, 0.5, 1, 2, 4, and 24 hours after the injection of water using the technique employed in Example 3. The headspace concentration of 1-MCP as a function of time is also reported in Table 9 for the “monolayer” film.

CC1=CC1 [1-MCP, 1-methylcyclopropene]
Headspace concentration of 1-MCP, average ([1]; 0.17 hours): 0.01 ppm (v/v)
Headspace concentration of 1-MCP, average ([1]; 0.5 hours): 1.3 ppm (v/v)
Headspace concentration of 1-MCP, average ([1]; 1 hour): 3.6 ppm (v/v)
Headspace concentration of 1-MCP, average ([1]; 16 hours): 29.7 ppm (v/v)
Headspace concentration of 1-MCP ([1]; no water, 1 hour, quantification limit): < 0.01 ppm
Headspace concentration of 1-MCP ([2]; 19 cm^2 Monolayer (printed PET, no PE film), 0.17 hours): 0.50 ppm (v/v)
Headspace concentration of 1-MCP ([2]; 19 cm^2 Monolayer (printed PET, no PE film), 0.5 hours): 0.52 ppm (v/v)
Headspace concentration of 1-MCP ([2]; 19 cm^2 Monolayer (printed PET, no PE film), 1 hour): 0.50 ppm (v/v)
Headspace concentration of 1-MCP ([2]; 19 cm^2 Monolayer (printed PET, no PE film), 2 hours): 0.51 ppm (v/v)
Headspace concentration of 1-MCP ([2]; 19 cm^2 Monolayer (printed PET, no PE film), 4 hours): 0.52 ppm (v/v)
Headspace concentration of 1-MCP ([2]; 19 cm^2 Monolayer (printed PET, no PE film), 24 hours): 0.49 ppm (v/v)
Headspace concentration of 1-MCP ([2]; 88 cm^2 Multilayer (inkjet printed PET overlaid with 25 μm PE), 0.17 hours): 0.25 ppm (v/v)
Headspace concentration of 1-MCP ([2]; 88 cm^2 Multilayer (inkjet printed PET overlaid with 25 μm PE), 0.5 hours): 0.46 ppm (v/v)
Headspace concentration of 1-MCP ([2]; 88 cm^2 Multilayer (inkjet printed PET overlaid with 25 μm PE), 1 hour): 1.1 ppm (v/v)
Headspace concentration of 1-MCP ([2]; 88 cm^2 Multilayer (inkjet printed PET overlaid with 25 μm PE), 2 hours): 1.5 ppm (v/v)
Headspace concentration of 1-MCP ([2]; 88 cm^2 Multilayer (inkjet printed PET overlaid with 25 μm PE), 4 hours): 3.2 ppm (v/v)
Headspace concentration of 1-MCP ([2]; 88 cm^2 Multilayer (inkjet printed PET overlaid with 25 μm PE), 24 hours): 8.3 ppm (v/v)
